In ChEMBL document CHEMBL1131927, “The synthesis and evaluation of temperature sensitive tubulin toxins” (Bioorg Med Chem Lett, 1999):

Experiments:
Assay type in all cases: functional
Tubulin [1] = target: T1, Tubulin (Bos taurus, UniProt Q6B856+Q862L2+Q862F3); assay: Inhibition of tubulin polymerization activity using homogenous bovine brain tubulin at 45 degree C
PC-3 = assay: In vitro growth inhibitory activity against human neoplastic PC3 cell line
MCF7 = assay: In vitro growth inhibitory activity against human neoplastic MCF-7 cell line
[2] = Selectivity ratio expressed as temperature dependence at 45 Degree C to that of 30 Degree C in bovine brain tubulin
Tubulin [3] = target: T1, Tubulin; assay: Inhibition of tubulin polymerization activity using homogenous bovine brain tubulin at 37 degree C
Tubulin [4] = target: T1, Tubulin; assay: Inhibition of tubulin polymerization activity using homogenous bovine brain tubulin at 30 degree C
NCI-H520 = assay: In vitro growth inhibitory activity against human neoplastic NCI-H520 cell line

| IC50 (Tubulin [3]) [µM] | IC50 (Tubulin [4]) [µM] | SMILES | IC50 (Tubulin [1]) [µM] | GI50 (PC-3) [µM] | GI50 (MCF7) [µM] | Selectivity [2] | GI50 (NCI-H520) [µM] |
| --- | --- | --- | --- | --- | --- | --- | --- |
| 23.6 | 29.5 | COc1cc2c(c(OC)c1OC)C(c1cccc(N)c(=O)c1)CC2 (centres undefined) | 23.6 |  |  | 1.25 |  |
| 28.1 | 32 | COc1cc2c(c(OC)c1OC)C(c1cccc(Br)c(=O)c1)CC2 (centres undefined) | 22 |  |  | 1.45 |  |
|  |  | COc1cc2c(c(OC)c1OC)-c1ccc(OC)c(=O)cc1[C@@H](NC(C)=O)CC2 [COLCHICINE] |  | <0.05 | <0.05 |  | <0.05 |
| 23.5 | 30.6 | CNc1cccc(C2CCc3cc(OC)c(OC)c(OC)c32)cc1=O (centres undefined) |  |  |  | 1.3 |  |
| 18.2 | 26.2 | CCOc1cccc(C2CCc3cc(OC)c(OC)c(OC)c32)cc1=O (centres undefined) | 18 |  |  | 1.7 |  |

| SMILES | IC50 (Tubulin [3]) [µM] | IC50 (Tubulin [4]) [µM] | IC50 (Tubulin [1]) [µM] | GI50 (PC-3) [µM] | GI50 (MCF7) [µM] | Selectivity [2] | GI50 (NCI-H520) [µM] |
| --- | --- | --- | --- | --- | --- | --- | --- |
| COc1ccc(C2CCc3cc(OC)c(OC)c(OC)c32)cc1O (centres undefined) | 10.9 | 11.8 | 10.9 | 0.5 | 10 | 1.1 | 0.1 |
| COc1cc(C2CCc3cc(OC)c(OC)c(OC)c32)ccc1O (centres undefined) | 46.4 | 46.4 | 46.4 | >100 | >100 | 0 | >100 |
| COc1cc2c(c(OC)c1OC)C(c1cccc(OC)c(=O)c1)CC2 (centres undefined) | 19 | 108 | 19 | 5.2 | 75 | 5.7 | 5.4 |
